# Experimental data: EP4603105A1, “PHARMACEUTICAL COMPOSITION CONTAINING CYCLIC COMPOUND HAVING SELECTIVE KRAS INHIBITORY EFFECT AGAINST HRAS AND NRAS” (CHUGAI SEIYAKU KABUSHIKI KAISHA, priority 2022, dated 2024)
# *1 amine or outer side, *2 acyl side, *3 side chain or, on linkers, in order; H or OH if unused. Where a SMILES comes first, the peptide text is derived from it. Bridges are numbered along the chain shown (N, C = ends). [ ]: non-standard residue; d: D form. The star is where a group is joined. hPhe(3-Cl-4-CF3) = N[C@@H](CCc1ccc(C(F)(F)F)c(Cl)c1)C(=O)O; X24 = CC(C)CN([C@@H](Cc1ccc(C(F)(F)F)cc1)C(=O)[*:2])[*:1]; NPrPhe(4-CF3) = CCCN[C@@H](Cc1ccc(C(F)(F)F)cc1)C(=O)O; NMeGly(cPent) = CN[C@H](C(=O)O)C1CCCC1; NMeD = CN[C@@H](CC(=O)O)C(=O)O; NMeL = CN[C@@H](CC(C)C)C(=O)O; Morpholide = C1CN(*)CCO1; NMeA = CN[C@@H](C)C(=O)O; Ac5c = NC1(C(=O)O)CCCC1; Aze = O=C(O)[C@@H]1CCN1; NEtG = CCNCC(=O)O; Sar = CNCC(=O)O
# How the values were obtained:
# HRAS wild-type protein = HRAS wild-type protein (Homo sapiens, UniProt P01112); experiment: Binding to HRAS by surface plasmon resonance (SPR), KD and KD ratio to KRAS
# Sequence of HRAS wild-type protein (P01112 whole entry): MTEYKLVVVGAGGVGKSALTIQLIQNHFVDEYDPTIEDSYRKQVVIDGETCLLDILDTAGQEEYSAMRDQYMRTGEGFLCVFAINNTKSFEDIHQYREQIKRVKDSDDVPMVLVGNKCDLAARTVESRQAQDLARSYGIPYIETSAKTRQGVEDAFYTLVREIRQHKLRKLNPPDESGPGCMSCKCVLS
# In short: (§1)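 Each cycle, GDP-bound biotin-Avi RAS was captured (~100–300 RU), compound concentrations were injected low to high for 75 s each at 100 µL/min, then the chip was regenerated. Buffer: HBS pH 7.4, 10 mM MgCl2, 10 µM GDP, 1 mM DTT, 4% DMSO; 30°C. KD from a 1:1 binding model.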
# [1] = molecular target: GDP-bound NRAS wild-type protein (Homo sapiens, UniProt P01111); experiment: Binding to NRAS by surface plasmon resonance (SPR), KD and KD ratio to KRAS
# Sequence of GDP-bound NRAS wild-type protein (P01111 whole entry): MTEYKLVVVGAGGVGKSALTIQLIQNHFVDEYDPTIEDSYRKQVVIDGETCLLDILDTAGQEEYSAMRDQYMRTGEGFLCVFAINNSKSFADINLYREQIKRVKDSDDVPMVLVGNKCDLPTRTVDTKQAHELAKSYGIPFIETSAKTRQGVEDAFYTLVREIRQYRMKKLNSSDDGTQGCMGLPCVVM
# In short: as §1
# [2] = tested on: human lung cancer strain NCI-H441; assay type: cell-based
# In short: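 Signal came from […] measured per well once the reagent was added. Beforehand, cells were cultured at 37°C and 5% carbon dioxide on a compound series serially diluted in dimethyl sulfoxide.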
# [3] = ratio of KD for HRAS wild-type protein to KD for KRAS
# [4] = ratio of KD for GDP-bound NRAS wild-type protein to KD for KRAS
# [5] = ratio of the KD value with respect to HRAS wild-type protein to the KD value with respect to KRAS
# [6] = ratio of the KD value with respect to GDP-bound NRAS wild-type protein to the KD value with respect to KRAS
Compound,HRAS /KRAS (HRAS wild-type protein; [3]),"NRAS /KRAS [1, 4]",IC50 [2],HRAS /KRAS (HRAS wild-type protein; [5]),"NRAS /KRAS [1, 6]",HRAS /KRAS (HRAS wild-type protein; ratio of KD value for HRAS wild-type protein to KD value for KRAS (SPR)),NRAS /KRAS ([1]; ratio of KD value for GDP-bound NRAS wild-type protein to KD value for KRAS (SPR))
CCCN1C(=O)[C@@H]2CCN2C(=O)CN(CC)C(=O)[C@H]([C@@H](C)CC)NC(=O)[C@H](CC(C)C)N(C)C(=O)C[C@@H](C(=O)N2CCOCC2)N(C)C(=O)[C@H](C2CCCC2)N(C)C(=O)C2(CCCC2)NC(=O)[C@@H]2CCCN2C(=O)[C@H](CCc2ccc(C(F)(F)F)c(Cl)c2)NC(=O)CN(C)C(=O)[C@@H]1Cc1ccc(C(F)(F)F)cc1 [PP0259] ([NMeL]I[NEtG][Aze][NPrPhe(4-CF3)][Sar][hPhe(3-Cl-4-CF3)]P[Ac5c][NMeGly(cPent)][NMeD]-Morpholide; lactam N-11),B (a compound having 3 or more and less than 10 is denoted as B),C (A compound having a KD ratio of 0.1 or more and less than 3 is denoted as C),10.2 nM,,,,
CC[C@H](C)[C@@H]1NC(=O)[C@H](CC(C)C)N(C)C(=O)C[C@@H](C(=O)N2CCOCC2)N(C)C(=O)[C@H](C2CCCC2)N(C)C(=O)C2(CCCC2)NC(=O)[C@@H]2CCCN2C(=O)[C@H](CCc2ccc(C(F)(F)F)c(Cl)c2)NC(=O)CN(C)C(=O)[C@H](Cc2ccc(C(F)(F)F)cc2)N(CC(C)C)C(=O)[C@@H]2CCN2C(=O)[C@H](C)N(C)C1=O [PP0107] ([NMeL]I[NMeA][Aze][X24][Sar][hPhe(3-Cl-4-CF3)]P[Ac5c][NMeGly(cPent)][NMeD]-Morpholide; lactam N-11),C (A compound having a KD ratio of 0.1 or more and less than 3 is denoted as C),C (A compound having a KD ratio of 0.1 or more and less than 3 is denoted as C),32.2 nM,,,,
CC[C@H](C)[C@@H]1NC(=O)[C@H](C2CC2)N(C)C(=O)C[C@@H](C(=O)N(C)CC)N(C)C(=O)[C@H](C2CCCC2)N(C)C(=O)C2(CCC2)NC(=O)[C@@H]2C[C@H](C)CN2C(=O)[C@H](CCc2cc(F)c(C(F)(F)F)c(F)c2)NC(=O)CN(C)C(=O)[C@H](Cc2ccc(C(F)(F)F)cc2)N2CC/C=C\C[C@@H](C2=O)N(C)C(=O)CN(C)C1=O [PP2080],,,17.8 nM,A (a compound having 10 or more and less than 20 is denoted as A),A (a compound having 10 or more and less than 20 is denoted as A),,
CCO[C@@H]1C[C@H]2C(=O)NC3(CCC3)C(=O)N(C)[C@@H](C3CCCC3)C(=O)N(C)[C@H](C(=O)N(C)CC)CC(=O)N(C)[C@@H](CC3CCC3)C(=O)N[C@@H]([C@@H](C)CC)C(=O)N(C)CC(=O)N(C)[C@H]3C/C=C\CCN(C3=O)[C@@H](Cc3ccc(C(F)(F)F)cc3)C(=O)N(C)CC(=O)N[C@@H](CCc3ccc(C(F)(F)F)c(OC)c3)C(=O)N2C1 [PP2825],B (a compound having 3 or more and less than 10 is denoted as B),A (a compound having 10 or more and less than 20 is denoted as A),7.6 nM,,,,
CCO[C@@H]1C[C@H]2C(=O)NC3(CC(C)(C)C3)C(=O)N(C)[C@@H](C3CCCC3)C(=O)N(C)[C@H](C(=O)N(C)C)CC(=O)N(C)[C@@H](C)C(=O)N[C@@H]([C@@H](C)CC)C(=O)N(C)CC(=O)N(C)[C@H]3CCCCCN(C3=O)[C@@H](Cc3ccc(C(F)(F)F)cc3)C(=O)N(C)CC(=O)N[C@@H](CCc3cc(F)c(C(F)(F)F)c(F)c3)C(=O)N2C1 [PP0723],,,10.8 nM,B (a compound having 3 or more and less than 10 is denoted as B),B (a compound having 3 or more and less than 10 is denoted as B),,
CCO[C@@H]1C[C@H]2C(=O)NC3(CCC3)C(=O)N(C)[C@@H](C3CCCC3)C(=O)N(C)[C@H](C(=O)N3CCCCC3)CC(=O)N(C)[C@H]3CCC/C=C/c4ccc(cc4)C[C@@H](C(=O)N(C)CC(=O)N[C@@H](CCc4cc(F)c(C(F)(F)F)c(F)c4)C(=O)N2C1)N1CC/C=C\C[C@@H](C1=O)N(C)C(=O)CN(C1CC1)C(=O)[C@H]([C@@H](C)CC)NC3=O [PP2954],A (a compound having 10 or more and less than 20 is denoted as A),A (a compound having 10 or more and less than 20 is denoted as A),16.5 nM,,,,
CC[C@H](C)[C@@H]1NC(=O)[C@H](CC(C)C)N(C)C(=O)C[C@@H](C(=O)N(C)CC)N(C)C(=O)[C@H](C2CCCC2)N(C)C(=O)C2(CC(C)(C)C2)NC(=O)[C@@H]2C[C@H](C)CN2C(=O)[C@H](CCc2ccc(C(F)(F)F)c(OC)c2)NC(=O)CN(C)C(=O)[C@H](Cc2ccc(C)cc2)N2CC/C=C\C[C@@H](C2=O)N(C)C(=O)CN(C)C1=O [PP1906],,,10.8 nM,A (a compound having 10 or more and less than 20 is denoted as A),A (a compound having 10 or more and less than 20 is denoted as A),,
CCO[C@@H]1C[C@H]2C(=O)NC3(CC(C)(C)C3)C(=O)N(CC)[C@@H](C3CCCC3)C(=O)N(C)[C@H](C(=O)N(C)C)CC(=O)N(C)[C@@H](CC)C(=O)N[C@@H]([C@@H](C)CC)C(=O)N(C)CC(=O)N(C)[C@H]3C/C=C\CCN(C3=O)[C@@H](Cc3ccc(C(F)(F)F)cc3)C(=O)N(C)CC(=O)N[C@@H](CCc3cc(F)c(C(F)(F)F)c(F)c3)C(=O)N2C1 [PP1913],,,44 nM,A (a compound having 10 or more and less than 20 is denoted as A),A (a compound having 10 or more and less than 20 is denoted as A),,
CCO[C@@H]1C[C@H]2C(=O)NC3(CC(C)(C)C3)C(=O)N(C)[C@@H](C3CCCC3)C(=O)N(C)[C@H](C(=O)N(C)C)CC(=O)N(C)[C@@H](COC)C(=O)N[C@@H]([C@@H](C)CC)C(=O)N(C)CC(=O)N(C)[C@H]3C/C=C\CCN(C3=O)[C@@H](Cc3ccc(C(F)(F)F)cc3)C(=O)N(C)CC(=O)N[C@@H](CCc3ccc(C(F)(F)F)c(Cl)c3)C(=O)N2C1 [PP1753],,,5.9 nM,,,A (a compound having 10 or more and less than 20 is denoted as A),A (a compound having 10 or more and less than 20 is denoted as A)
CCO[C@H]1CCN2C(=O)[C@H](CCc3cc(F)c(C(F)(F)F)c(F)c3)NC(=O)CN(C)C(=O)[C@H](Cc3ccc(C(F)(F)F)cc3)N3CCCC[C@@H](C3=O)N(C)C(=O)CN(C)C(=O)[C@H]([C@@H](C)CC)NC(=O)[C@H](CC(C)C)N(C)C(=O)C[C@@H](C(=O)N3CCOCC3)N(C)C(=O)[C@H](C3CCCC3)N(C)C(=O)C3(CCC3)NC(=O)[C@H]12 [PP1076],B (a compound having 3 or more and less than 10 is denoted as B),B (a compound having 3 or more and less than 10 is denoted as B),4.6 nM,,,,
C#CC[C@H]1C(=O)N[C@@H]([C@@H](C)CC)C(=O)N(C)CC(=O)N(C)[C@H]2C/C=C\CCN(C2=O)[C@@H](Cc2ccc(C(F)(F)F)cc2)C(=O)N(C)CC(=O)N[C@@H](CCc2ccc(C(F)(F)F)c(OC)c2)C(=O)N2C[C@H](OCC)C[C@H]2C(=O)NC2(CCC2)C(=O)N(C)[C@@H](C2CCCC2)C(=O)N(C)[C@H](C(=O)N(C)CCC)CC(=O)N1C [PP2059],,,4.9 nM,A (a compound having 10 or more and less than 20 is denoted as A),A (a compound having 10 or more and less than 20 is denoted as A),,
CCC[C@H]1C(=O)N[C@@H]([C@@H](C)CC)C(=O)N(C2CC2)CC(=O)N(C)[C@H]2C/C=C\CCN(C2=O)[C@@H](Cc2ccc(C)cc2)C(=O)N(C)CC(=O)N[C@@H](CCc2cc(C)c(C(F)F)c(C)c2)C(=O)N2C[C@H](OCC)C[C@H]2C(=O)NC2(CC(C)(C)C2)C(=O)N(C)[C@@H](C2CCCC2)C(=O)N(C)[C@H](C(=O)N(C)C)CC(=O)N1C [PP2873],A (a compound having 10 or more and less than 20 is denoted as A),A (a compound having 10 or more and less than 20 is denoted as A),128 nM,,,,
CC[C@H](C)[C@@H]1NC(=O)[C@H](CC(C)C)N(C)C(=O)C[C@@H](C(=O)N2CCOCC2)N(C)C(=O)[C@H](C2CCCC2)N(C)C(=O)C2(CCOCC2)NC(=O)[C@@H]2CCCN2C(=O)[C@H](CCc2cc(F)c(C(F)(F)F)c(F)c2)NC(=O)CN(C)C(=O)[C@H](Cc2ccc(C(F)(F)F)cc2)N2CCCC[C@@H](C2=O)N(C)C(=O)CN(C)C1=O [PP0564],,,18.4 nM,B (a compound having 3 or more and less than 10 is denoted as B),B (a compound having 3 or more and less than 10 is denoted as B),,
CCO[C@@H]1C[C@H]2C(=O)NC3(CC(C)(C)C3)C(=O)N(C)[C@@H](C(CC)CC)C(=O)N(C)[C@H](C(=O)N(C)C)CC(=O)N(C)[C@H]3CCCC/C=C/c4ccc(cc4)C[C@@H](C(=O)N(C)CC(=O)N[C@@H](CCc4cc(F)c(C(F)(F)F)c(F)c4)C(=O)N2C1)N1CC/C=C\C[C@@H](C1=O)N(C)C(=O)CN(C)C(=O)[C@H]([C@@H](C)CC)NC3=O [PP3044],A (a compound having 10 or more and less than 20 is denoted as A),AA (a compound having 20 or more is denoted as AA),7.1 nM,,,,
